Assay results reported in patent US12077503B2, “Substituted cyclic amides and their use as herbicides” (FMC CORPORATION, priority 2015, dated 2024).

Experiments:
Type in all cases: in vivo
[1] = tested on: ivy-leaved morning glory (Ipomoea hederacea); test: Test G Pre-Emergence Protocol; details: Ipomoea, pre-emergence, 312 h, evaluated after 13 days
How it was run: (§1)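 Test compound in 0.5% Tween 20 acetone/water (50:50) was applied at three rates (15.625, 62.5, 250 g/ha) to soil sown one day earlier. After 13 days plants were scored for injury, where 0 means unaffected and 100 means completely damaged.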

[2] = tested on: velvetleaf (Abutilon theophrasti); test: Test G Pre-Emergence Protocol; details: Abutilon theophrasti, pre-emergence, 312 h, evaluated after 13 days
How it was run: as §1

[3] = tested on: barnyardgrass (Echinochloa crus-galli); test: Test G Pre-Emergence Protocol; details: Echinochloa crus-galli, pre-emergence, 312 h, evaluated after 13 days
How it was run: as §1

[4] = tested on: giant foxtail (Setaria faberi); test: Test G Pre-Emergence Protocol; details: Setaria faberi, pre-emergence, 312 h, evaluated after 13 days
How it was run: as §1

[5] = tested on: corn (Zea mays); test: Test G Pre-Emergence Protocol; details: Zea mays, pre-emergence, 312 h, evaluated after 13 days
How it was run: as §1

[6] = tested on: redroot pigweed (Amaranthus retroflexus); test: Test G Pre-Emergence Protocol; details: Amaranthus retroflexus, pre-emergence, 312 h, evaluated after 13 days
How it was run: as §1

[7] = tested on: ivy-leaved morning glory (Ipomoea hederacea); test: Test G Post-Emergence Protocol; details: Ipomoea, post-emergence, 312 h
How it was run: (§2)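 Pot-grown seedlings, 8 days old, raised in a glasshouse at 24/16 °C day/night with 14 h light and 65% humidity, were sprayed post-emergence with test compound in acetone/water (50:50) plus 0.5% Tween 20 at 15.625, 62.5 or 250 g/ha. Damage was scored visually 13 days later on a 0–100 scale (100 = total damage).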

[8] = tested on: velvetleaf (Abutilon theophrasti); test: Test G Post-Emergence Protocol; details: Abutilon theophrasti, post-emergence, 312 h
How it was run: as §2

[9] = tested on: barnyardgrass (Echinochloa crus-galli); test: Test G Post-Emergence Protocol; details: Echinochloa crus-galli, post-emergence, 312 h
How it was run: as §2

[10] = tested on: giant foxtail (Setaria faberi); test: Test G Post-Emergence Protocol; details: Setaria faberi, post-emergence, 312 h
How it was run: as §2

[11] = tested on: corn (Zea mays); test: Test G Post-Emergence Protocol; details: Zea mays, post-emergence, 312 h
How it was run: as §2

[12] = tested on: redroot pigweed (Amaranthus retroflexus); test: Test G Post-Emergence Protocol; details: Amaranthus retroflexus, post-emergence, 312 h
How it was run: as §2

## CN1C[C@@H](c2cnc(Cl)c(Cl)c2)[C@H](C(=O)Nc2cccc(F)c2F)C1=O (racemic) [Compound 1487]
[1]; 15.625 g ai/ha, read-out: Morning-glory, Ivy-leaved damage rating (100=total damage to plant; 0=no damage to plant)
  pest or weed control at 15.625 g/ha: 0%
[1]; 62.5 g ai/ha, 100=total damage to plant, 0=no damage to plant, read-out: plant damage rating, Morningglory, Ivy-leaved
  pest or weed control at 62.5 g/ha: 0%
[1]; 250 g ai/ha, read-out: Morningglory, Ivy-leaved damage rating (100=total damage to plant; 0=no damage to plant)
  pest or weed control at 250 g/ha: 20%
[2]; 15.625 g ai/ha, read-out: Velvetleaf damage rating (100=total damage to plant; 0=no damage to plant)
  pest or weed control at 15.625 g/ha: 0%
[2]; 62.5 g ai/ha, 100=total damage to plant, 0=no damage to plant, read-out: plant damage rating, Velvetleaf
  pest or weed control at 62.5 g/ha: 0%
[2]; 250 g ai/ha, read-out: Velvetleaf damage rating (100=total damage to plant; 0=no damage to plant)
  pest or weed control at 250 g/ha: 30%
[3]; 15.625 g ai/ha, read-out: Barnyard grass damage rating (100=total damage to plant; 0=no damage to plant)
  pest or weed control at 15.625 g/ha: 30%
[3]; 62.5 g ai/ha, 100=total damage to plant, 0=no damage to plant, read-out: plant damage rating, Barnyardgrass
  pest or weed control at 62.5 g/ha: 90%
[3]; 250 g ai/ha, read-out: Barnyardgrass damage rating (100=total damage to plant; 0=no damage to plant)
  pest or weed control at 250 g/ha: 80%
[4]; 15.625 g ai/ha, read-out: Foxtail, Giant damage rating (100=total damage to plant; 0=no damage to plant)
  pest or weed control at 15.625 g/ha: 80%
[4]; 62.5 g ai/ha, 100=total damage to plant, 0=no damage to plant, read-out: plant damage rating, Foxtail, Giant
  pest or weed control at 62.5 g/ha: 90%
[4]; 250 g ai/ha, read-out: Foxtail, Giant damage rating (100=total damage to plant; 0=no damage to plant)
  pest or weed control at 250 g/ha: 90%
[5]; 15.625 g ai/ha, read-out: Corn damage rating (100=total damage to plant; 0=no damage to plant)
  plant injury at 15.625 g/ha: 10%
[5]; 62.5 g ai/ha, 100=total damage to plant, 0=no damage to plant, read-out: plant damage rating, Corn
  plant injury at 62.5 g/ha: 20%
[5]; 250 g ai/ha, read-out: Corn damage rating (100=total damage to plant; 0=no damage to plant)
  plant injury at 250 g/ha: 70%
[6]; 15.625 g ai/ha, read-out: Pigweed, Redroot damage rating (100=total damage to plant; 0=no damage to plant)
  pest or weed control at 15.625 g/ha: 0%
[6]; 62.5 g ai/ha, 100=total damage to plant, 0=no damage to plant, read-out: plant damage rating, Pigweed, Redroot
  pest or weed control at 62.5 g/ha: 0%
[6]; 250 g ai/ha, read-out: Pigweed, Redroot damage rating (100=total damage to plant; 0=no damage to plant)
  pest or weed control at 250 g/ha: 80%
[7]; 15.625 g ai/ha, evaluated after 13 days (100=total damage to plant; 0=no damage to plant), read-out: Morningglory, Ivy-leaved damage rating
  pest or weed control at 15.625 g/ha: 0%
[7]; 62.5 g ai/ha, evaluated after 13 days, read-out: Morningglory, Ivy-leaved damage rating (100=total damage to plant; 0=no damage to plant)
  pest or weed control at 62.5 g/ha: 0%
[7]; 250 g ai/ha, evaluated after 13 days, read-out: damage to plant, Morningglory, Ivy-leaved (100=total damage to plant; 0=no damage to plant)
  pest or weed control at 250 g/ha: 20%
[8]; 15.625 g ai/ha, evaluated after 13 days (100=total damage to plant; 0=no damage to plant), read-out: Velvetleaf damage rating
  pest or weed control at 15.625 g/ha: 0%
[8]; 62.5 g ai/ha, evaluated after 13 days, read-out: Velvetleaf damage rating (100=total damage to plant; 0=no damage to plant)
  pest or weed control at 62.5 g/ha: 0%
[8]; 250 g ai/ha, evaluated after 13 days, read-out: damage to plant, Velvetleaf (100=total damage to plant; 0=no damage to plant)
  pest or weed control at 250 g/ha: 20%
[9]; 15.625 g ai/ha, evaluated after 13 days (100=total damage to plant; 0=no damage to plant), read-out: Barnyardgrass damage rating
  pest or weed control at 15.625 g/ha: 50%
[9]; 62.5 g ai/ha, evaluated after 13 days, read-out: Barnyardgrass damage rating (100=total damage to plant; 0=no damage to plant)
  pest or weed control at 62.5 g/ha: 60%
[9]; 250 g ai/ha, evaluated after 13 days, read-out: damage to plant, Barnyardgrass (100=total damage to plant; 0=no damage to plant)
  pest or weed control at 250 g/ha: 70%
[10]; 15.625 g ai/ha, evaluated after 13 days (100=total damage to plant; 0=no damage to plant), read-out: Foxtail, Giant damage rating
  pest or weed control at 15.625 g/ha: 60%
[10]; 62.5 g ai/ha, evaluated after 13 days, read-out: Foxtail, Giant damage rating (100=total damage to plant; 0=no damage to plant)
  pest or weed control at 62.5 g/ha: 70%
[10]; 250 g ai/ha, evaluated after 13 days, read-out: damage to plant, Foxtail, Giant (100=total damage to plant; 0=no damage to plant)
  pest or weed control at 250 g/ha: 70%
[11]; 15.625 g ai/ha, evaluated after 13 days (100=total damage to plant; 0=no damage to plant), read-out: Corn damage rating
  plant injury at 15.625 g/ha: 20%
[11]; 62.5 g ai/ha, evaluated after 13 days, read-out: Corn damage rating (100=total damage to plant; 0=no damage to plant)
  plant injury at 62.5 g/ha: 60%
[11]; 250 g ai/ha, evaluated after 13 days, read-out: damage to plant, Corn (100=total damage to plant; 0=no damage to plant)
  plant injury at 250 g/ha: 70%
[12]; 15.625 g ai/ha, evaluated after 13 days (100=total damage to plant; 0=no damage to plant), read-out: Pigweed, Redroot damage rating
  pest or weed control at 15.625 g/ha: 20%
[12]; 62.5 g ai/ha, evaluated after 13 days, read-out: Pigweed, Redroot damage rating (100=total damage to plant; 0=no damage to plant)
  pest or weed control at 62.5 g/ha: 0%
[12]; 250 g ai/ha, evaluated after 13 days, read-out: damage to plant, Pigweed, Redroot (100=total damage to plant; 0=no damage to plant)
  pest or weed control at 250 g/ha: 30%
